Results: ChEMBL document CHEMBL4020788, “Synthesis, SAR and molecular docking studies of benzo[d]thiazole-hydrazones as potential antibacterial and antifungal agents” (2017)
In brackets after ≈: the same amount, converted by molar mass. Activity calls are given as the source filed them. No cut-off for these calls is given here.

Legend:
Assay type in all cases: functional
Bacillus subtilis [1] = experiment: Antibacterial activity against Bacillus subtilis at 50 ug/ml after 24 hrs by agar well diffusion method; conditions: read-out: DIZ
Staphylococcus aureus [2] = experiment: Antibacterial activity against Staphylococcus aureus at 75 ug/ml after 24 hrs by agar well diffusion method; conditions: read-out: DIZ
Bacillus subtilis [3] = experiment: Antibacterial activity against Bacillus subtilis at 25 ug/ml after 24 hrs by agar well diffusion method; conditions: read-out: DIZ
Fusarium verticillioides [4] = experiment: Antifungal activity against Fusarium moniliforme after 48 to 72 hrs by microdilution method
Staphylococcus aureus [5] = experiment: Antibacterial activity against methicillin resistant Staphylococcus aureus MRSA090 at 75 ug/ml after 24 hrs by agar well diffusion method; conditions: MRSA090, 24 h, read-out: DIZ
Klebsiella pneumoniae [6] = experiment: Antibacterial activity against Klebsiella pneumoniae at 100 ug/ml after 24 hrs by agar well diffusion method; conditions: for zone of inhibition at 100 µg/mL: read-out: DIZ
Fusarium verticillioides [7] = experiment: Antifungal activity against Fusarium moniliforme at 75 ug/ml after 48 hrs by agar well diffusion method; conditions: read-out: DIZ
Aspergillus niger [8] = experiment: Antifungal activity against Aspergillus niger at 50 ug/ml after 48 hrs by agar well diffusion method; conditions: read-out: DIZ
Staphylococcus aureus [9] = experiment: Antibacterial activity against Staphylococcus aureus at 25 ug/ml after 24 hrs by agar well diffusion method; conditions: read-out: DIZ
Escherichia coli [10] = experiment: Antibacterial activity against Escherichia coli at 100 ug/ml after 24 hrs by agar well diffusion method; conditions: for zone of inhibition at 100 µg/mL: read-out: DIZ
Bacillus subtilis [11] = experiment: Antibacterial activity against Bacillus subtilis incubated for overnight by microdilution method
Aspergillus niger [12] = experiment: Antifungal activity against Aspergillus niger at 25 ug/ml after 48 hrs by agar well diffusion method; conditions: read-out: DIZ
Escherichia coli [13] = experiment: Antibacterial activity against Escherichia coli at 75 ug/ml after 24 hrs by agar well diffusion method; conditions: for zone of inhibition at 75 µg/mL: read-out: DIZ
Fusarium oxysporum [14] = experiment: Antifungal activity against Fusarium oxysporum at 100 ug/ml after 48 hrs by agar well diffusion method; conditions: read-out: DIZ
Aspergillus niger [15] = experiment: Antifungal activity against Aspergillus niger at 100 ug/ml after 48 hrs by agar well diffusion method; conditions: read-out: DIZ
Klebsiella pneumoniae [16] = experiment: Antibacterial activity against Klebsiella pneumoniae incubated for overnight by microdilution method
Escherichia coli [17] = experiment: Antibacterial activity against Escherichia coli at 50 ug/ml after 24 hrs by agar well diffusion method; conditions: for zone of inhibition at 50 µg/mL: read-out: DIZ
Fusarium verticillioides [18] = experiment: Antifungal activity against Fusarium moniliforme at 25 ug/ml after 48 hrs by agar well diffusion method; conditions: read-out: DIZ
Bacillus subtilis [19] = experiment: Antibacterial activity against Bacillus subtilis at 100 ug/ml after 24 hrs by agar well diffusion method; conditions: read-out: DIZ
Fusarium oxysporum [20] = experiment: Antifungal activity against Fusarium oxysporum after 48 to 72 hrs by microdilution method
Klebsiella pneumoniae [21] = experiment: Antibacterial activity against Klebsiella pneumoniae at 50 ug/ml after 24 hrs by agar well diffusion method; conditions: for zone of inhibition at 50 µg/mL: read-out: DIZ
Fusarium oxysporum [22] = experiment: Antifungal activity against Fusarium oxysporum at 25 ug/ml after 48 hrs by agar well diffusion method; conditions: read-out: DIZ
Aspergillus niger [23] = experiment: Antifungal activity against Aspergillus niger after 48 to 72 hrs by microdilution method
Staphylococcus aureus [24] = experiment: Antibacterial activity against methicillin resistant Staphylococcus aureus MRSA090 at 50 ug/ml after 24 hrs by agar well diffusion method; conditions: MRSA090, 24 h, read-out: DIZ
Staphylococcus aureus [25] = experiment: Antibacterial activity against Staphylococcus aureus at 100 ug/ml after 24 hrs by agar well diffusion method; conditions: read-out: DIZ
Escherichia coli [26] = experiment: Antibacterial activity against Escherichia coli incubated for overnight by microdilution method
Staphylococcus aureus [27] = experiment: Antibacterial activity against methicillin resistant Staphylococcus aureus MRSA090 at 25 ug/ml after 24 hrs by agar well diffusion method; conditions: MRSA090, 24 h, read-out: DIZ
Escherichia coli [28] = experiment: Antibacterial activity against Escherichia coli at 25 ug/ml after 24 hrs by agar well diffusion method; conditions: for zone of inhibition at 25 µg/mL: read-out: DIZ
Fusarium oxysporum [29] = experiment: Antifungal activity against Fusarium oxysporum at 50 ug/ml after 48 hrs by agar well diffusion method; conditions: read-out: DIZ
Klebsiella pneumoniae [30] = experiment: Antibacterial activity against Klebsiella pneumoniae at 25 ug/ml after 24 hrs by agar well diffusion method; conditions: for zone of inhibition at 25 µg/mL: read-out: DIZ
Staphylococcus aureus [31] = experiment: Antibacterial activity against Staphylococcus aureus incubated for overnight by microdilution method
Fusarium oxysporum [32] = experiment: Antifungal activity against Fusarium oxysporum at 75 ug/ml after 48 hrs by agar well diffusion method; conditions: read-out: DIZ
Bacillus subtilis [33] = experiment: Antibacterial activity against Bacillus subtilis at 75 ug/ml after 24 hrs by agar well diffusion method; conditions: read-out: DIZ
Fusarium verticillioides [34] = experiment: Antifungal activity against Fusarium moniliforme at 50 ug/ml after 48 hrs by agar well diffusion method; conditions: read-out: DIZ
Aspergillus niger [35] = experiment: Antifungal activity against Aspergillus niger at 75 ug/ml after 48 hrs by agar well diffusion method; conditions: read-out: DIZ
Klebsiella pneumoniae [36] = experiment: Antibacterial activity against Klebsiella pneumoniae at 75 ug/ml after 24 hrs by agar well diffusion method; conditions: for zone of inhibition at 75 µg/mL: read-out: DIZ
Staphylococcus aureus [37] = experiment: Antibacterial activity against methicillin resistant Staphylococcus aureus MRSA090 at 100 ug/ml after 24 hrs by agar well diffusion method; conditions: MRSA090, 24 h, read-out: DIZ
Fusarium verticillioides [38] = experiment: Antifungal activity against Fusarium moniliforme at 100 ug/ml after 48 hrs by agar well diffusion method; conditions: read-out: DIZ
Staphylococcus aureus [39] = experiment: Antibacterial activity against Staphylococcus aureus at 50 ug/ml after 24 hrs by agar well diffusion method; conditions: read-out: DIZ
Staphylococcus aureus [40] = experiment: Antibacterial activity against methicillin resistant Staphylococcus aureus MRSA090 incubated for overnight by microdilution method

Structure (SMILES)	zone of inhibition at 50 µg/mL (Bacillus subtilis [1]) [mm]	zone of inhibition at 75 µg/mL (Staphylococcus aureus [2]) [mm]	zone of inhibition at 25 µg/mL (Bacillus subtilis [3]) [mm]	MIC (Fusarium verticillioides [4]) [µg/mL]	zone of inhibition at 75 µg/mL (Staphylococcus aureus [5]) [mm]	zone of inhibition at 75 µg/mL (Fusarium verticillioides [7]) [mm]	zone of inhibition at 50 µg/mL (Aspergillus niger [8]) [mm]	zone of inhibition at 25 µg/mL (Staphylococcus aureus [9]) [mm]	zone of inhibition at 25 µg/mL (Aspergillus niger [12]) [mm]	zone of inhibition at 100 µg/mL (Fusarium oxysporum [14]) [mm]	zone of inhibition at 100 µg/mL (Aspergillus niger [15]) [mm]	zone of inhibition at 25 µg/mL (Fusarium verticillioides [18]) [mm]	zone of inhibition at 100 µg/mL (Bacillus subtilis [19]) [mm]	MIC (Fusarium oxysporum [20]) [µg/mL]	zone of inhibition at 25 µg/mL (Fusarium oxysporum [22]) [mm]	MIC (Aspergillus niger [23]) [µg/mL]	zone of inhibition at 50 µg/mL (Staphylococcus aureus [24]) [mm]	zone of inhibition at 100 µg/mL (Staphylococcus aureus [25]) [mm]	zone of inhibition at 25 µg/mL (Staphylococcus aureus [27]) [mm]	zone of inhibition at 50 µg/mL (Fusarium oxysporum [29]) [mm]	further results
Cc1cccc2nc(N/N=C/c3ccc(F)cc3F)sc12	10	11	7	20 (≈ 65.9 µM)	16	28	24	5	17	20	30	18	15	18 (≈ 59.3 µM)	10	26 (≈ 85.7 µM)	13	15	10	13	diameter of the inhibition zone (DIZ) (Klebsiella pneumoniae [6]): inactive; zone of inhibition at 100 µg/mL (Escherichia coli [10]): 14 mm; MIC (Bacillus subtilis [11]): 25 µg/mL (≈ 82.4 µM); zone of inhibition at 75 µg/mL (Escherichia coli [13]): 11 mm; MIC (Klebsiella pneumoniae [16]): 22 µg/mL (≈ 72.5 µM); zone of inhibition at 50 µg/mL (Escherichia coli [17]): 7 mm; diameter of the inhibition zone (DIZ) (Klebsiella pneumoniae [21]): inactive; MIC (Escherichia coli [26]): 24 µg/mL (≈ 79.1 µM); zone of inhibition at 25 µg/mL (Escherichia coli [28]): 4 mm; diameter of the inhibition zone (DIZ) (Klebsiella pneumoniae [30]): inactive; MIC (Staphylococcus aureus [31]): 23 µg/mL (≈ 75.8 µM); zone of inhibition at 75 µg/mL (Fusarium oxysporum [32]): 16 mm; zone of inhibition at 75 µg/mL (Bacillus subtilis [33]): 13 mm; zone of inhibition at 50 µg/mL (Fusarium verticillioides [34]): 23 mm; zone of inhibition at 75 µg/mL (Aspergillus niger [35]): 29 mm; diameter of the inhibition zone (DIZ) (Klebsiella pneumoniae [36]): inactive; zone of inhibition at 100 µg/mL (Staphylococcus aureus [37]): 19 mm; zone of inhibition at 100 µg/mL (Fusarium verticillioides [38]): 33 mm; zone of inhibition at 50 µg/mL (Staphylococcus aureus [39]): 8 mm
COc1cc(/C=N/Nc2nc3cccc(C)c3s2)cc(OC)c1OC	24	33	19	26 (≈ 72.7 µM)	31	33	14	22	9	20	21	23	33	23 (≈ 64.3 µM)	7	30 (≈ 83.9 µM)	25	38	19	11	zone of inhibition at 100 µg/mL (Klebsiella pneumoniae [6]): 38 mm; zone of inhibition at 100 µg/mL (Escherichia coli [10]): 36 mm; MIC (Bacillus subtilis [11]): 18 µg/mL (≈ 50.4 µM); zone of inhibition at 75 µg/mL (Escherichia coli [13]): 31 mm; MIC (Klebsiella pneumoniae [16]): 22 µg/mL (≈ 61.5 µM); zone of inhibition at 50 µg/mL (Escherichia coli [17]): 25 mm; zone of inhibition at 50 µg/mL (Klebsiella pneumoniae [21]): 27 mm; MIC (Staphylococcus aureus [40]): 19 µg/mL (≈ 53.2 µM); MIC (Escherichia coli [26]): 20 µg/mL (≈ 56 µM); zone of inhibition at 25 µg/mL (Escherichia coli [28]): 20 mm; zone of inhibition at 25 µg/mL (Klebsiella pneumoniae [30]): 21 mm; MIC (Staphylococcus aureus [31]): 19 µg/mL (≈ 53.2 µM); zone of inhibition at 75 µg/mL (Fusarium oxysporum [32]): 17 mm; zone of inhibition at 75 µg/mL (Bacillus subtilis [33]): 28 mm; zone of inhibition at 50 µg/mL (Fusarium verticillioides [34]): 28 mm; zone of inhibition at 75 µg/mL (Aspergillus niger [35]): 20 mm; zone of inhibition at 75 µg/mL (Klebsiella pneumoniae [36]): 33 mm; zone of inhibition at 100 µg/mL (Staphylococcus aureus [37]): 34 mm; zone of inhibition at 100 µg/mL (Fusarium verticillioides [38]): 37 mm; zone of inhibition at 50 µg/mL (Staphylococcus aureus [39]): 28 mm
Cc1cccc2nc(N/N=C/c3ccc(Cl)cc3Cl)sc12	9	16	4	28 (≈ 83.3 µM)	13	28	24	4	20	31	33	17	16	26 (≈ 77.3 µM)	18	25 (≈ 74.4 µM)	8	20	5	22	zone of inhibition at 100 µg/mL (Klebsiella pneumoniae [6]): 22 mm; diameter of the inhibition zone (DIZ) (Escherichia coli [10]): inactive; diameter of the inhibition zone (DIZ) (Escherichia coli [13]): inactive; diameter of the inhibition zone (DIZ) (Escherichia coli [17]): inactive; zone of inhibition at 50 µg/mL (Klebsiella pneumoniae [21]): 15 mm; diameter of the inhibition zone (DIZ) (Escherichia coli [28]): inactive; zone of inhibition at 25 µg/mL (Klebsiella pneumoniae [30]): 10 mm; zone of inhibition at 75 µg/mL (Fusarium oxysporum [32]): 27 mm; zone of inhibition at 75 µg/mL (Bacillus subtilis [33]): 13 mm; zone of inhibition at 50 µg/mL (Fusarium verticillioides [34]): 21 mm; zone of inhibition at 75 µg/mL (Aspergillus niger [35]): 29 mm; zone of inhibition at 75 µg/mL (Klebsiella pneumoniae [36]): 19 mm; zone of inhibition at 100 µg/mL (Staphylococcus aureus [37]): 16 mm; zone of inhibition at 100 µg/mL (Fusarium verticillioides [38]): 32 mm; zone of inhibition at 50 µg/mL (Staphylococcus aureus [39]): 12 mm
